Laboratory results: patent US20230107642A1 (Erasca, Inc., priority 2020, published 2023)

Target: T1, Cys12 of the KRAS 4B G12C protein (Homo sapiens, UniProt P01116, G12C)
T1 construct: This protein contained 188 amino acids in total, including an N-terminal 6-Histidine tag; made in house; host or cells: E. coli BL21
Experiment: In vitro covalent adduct formation (CAF) assay, LC-MS intact mass
Format: binding
Conditions: 10 uM compound, 60 min
Method in brief: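 Percent covalent modification from intact-mass LC-MS, by relative free versus adducted protein (adducts within 1 Da of expected mass). Reaction: 10 μM compound with 5 μM E. coli-expressed, GDP-exchanged KRAS 4B G12C in TBS pH 7.4, 4% DMSO, 1 h at 22° C.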

First: C=CC(=O)N1[C@H](C)CN(c2nc(=O)n3c4c(c(-c5ccc(F)c(Cl)c5)c(C(F)(F)F)cc24)SC[C@@H]3CN2CCN(C3CC3)CC2)C[C@@H]1C [Example 1372, (S)-7-((3S,5R)-4-acryloyl-3,5-dimethylpiperazin-1-yl)-10-(3-chloro-4-fluorophenyl)-3-((4-cyclopropylpiperazin-1-yl)methyl)-9-(trifluoromethyl)-2,3-dihydro-5H-[1,4]thiazino[2,3,4-ij]quinazolin-5-one]
Second: C=CC(=O)N1C[C@H](C)N(c2nc(=O)n3c4c(c(-c5ccc(F)c(Cl)c5)c(C(F)(F)F)cc24)SC[C@@H]3CN2CCN(C3CC3)CC2)C[C@H]1C [Example 1387, (S)-7-((2S,5R)-4-acryloyl-2,5-dimethylpiperazin-1-yl)-10-(3-chloro-4-fluorophenyl)-3-((4-cyclopropylpiperazin-1-yl)methyl)-9-(trifluoromethyl)-2,3-dihydro-5H-[1,4]thiazino[2,3,4-ij]quinazolin-5-one]
The “% CAF 10 uM @ 60 min” value of the first is higher: 77.2% for the first, 71% for the second.

Going from `C=CC(=O)N1[C@H](C)CN(c2nc(=O)n3c4c(c(-c5ccc(F)c(Cl)c5)c(C(F)(F)F)cc24)SC[C@@H]3CN2CCN(CC)CC2)C[C@@H]1C` [Example 1373, (S)-7-((3S,5R)-4-acryloyl-3,5-dimethylpiperazin-1-yl)-10-(3-chloro-4-fluorophenyl)-3-((4ethylpiperazin-1-yl)methyl)-9-(trifluoromethyl)-2,3-dihydro-5H-[1,4]thiazino[2,3,4-ij]quinazolin-5-one] to `C=CC(=O)N1C[C@H](C)N(c2nc(=O)n3c4c(c(-c5ccc(F)c(Cl)c5)c(C(F)(F)F)cc24)SC[C@@H]3CN2CCN(CC)CC2)C[C@H]1C` [Example 1380, (S)-7-((2S,5R)-4-acryloyl-2,5-dimethylpiperazin-1-yl)-10-(3-chloro-4-fluorophenyl)-3-((4-ethylpiperazin-1-yl)methyl)-9-(trifluoromethyl)-2,3-dihydro-5H-[1,4]thiazino[2,3,4-ij]quinazolin-5-one], the “% CAF 10 uM @ 60 min” value rises from 66.2% to 88.4%.

First: C=CC(=O)N1[C@H](C)CN(c2nc(=O)n3c4c(c(-c5c(F)cc(F)cc5F)c(C(F)(F)F)cc24)SC[C@@H]3COC)C[C@@H]1C [Example 1374, (S)-7-((3S,5R)-4-acryloyl-3,5-dimethylpiperazin-1-yl)-3-(methoxymethyl)-9-(trifluoromethyl)-10-(2,4,6-trifluorophenyl)-2,3-dihydro-5H-[1,4]thiazino[2,3,4-ij]quinazolin-5-one]
Second: C=CC(=O)N1CCN(c2nc(=O)n3c4c(c(-c5c(F)cc(F)cc5F)c(C(F)(F)F)cc24)SC[C@@H]3COC)CC1 [Example 1379, (S)-7-(4-acryloylpiperazin-1-yl)-3-(methoxymethyl)-9-(trifluoromethyl)-10-(2,4,6-trifluorophenyl)-2,3-dihydro-5H-[1,4]thiazino[2,3,4-ij]quinazolin-5-one]
The “% CAF 10 uM @ 60 min” value of the first is lower: 88.5% for the first, 96.7% for the second.

Compared with `C=CC(=O)N1CCN(c2nc(=O)n3c4c(c(-c5c(F)cccc5F)c(C(F)(F)F)cc24)SC[C@@H]3COC)CC1` [Example 1377, (S)-7-(4-acryloylpiperazin-1-yl)-10-(2,6-difluorophenyl)-3-(methoxymethyl)-9-(trifluoromethyl)-2,3-dihydro-5H-[1,4]thiazino[2,3,4-ij]quinazolin-5-one], `C=CC(=O)N1CCN(c2nc(=O)n3c4c(c(-c5ccc(F)cc5)c(C(F)(F)F)cc24)SC[C@@H]3CN2CCN(CC)CC2)CC1` [Example 1378, (S)-7-(4-acryloylpiperazin-1-yl)-3-((4-ethylpiperazin-1-yl)methyl)-10-(4-fluorophenyl)-9-(trifluoromethyl)-2,3-dihydro-5H-[1,4]thiazino[2,3,4-ij]quinazolin-5-one] is lower in “% CAF 10 uM @ 60 min” value: 95.5% for the first, 78.9% for the second.

First: C=CC(=O)N1CC2COCC(C1)N2c1nc(=O)n2c3c(c(-c4ccc(F)cc4)c(C(F)(F)F)cc13)SC[C@@H]2COC [Example 1383, (3S)-7-(7-acryloyl-3-oxa-7,9-diazabicyclo[3.3.1]nonan-9-yl)-10-(4-fluorophenyl)-3-(methoxymethyl)-9-(trifluoromethyl)-2,3-dihydro-5H-[1,4]thiazino[2,3,4-ij]quinazolin-5-one]
Second: C=CC(=O)N1C2COCC1CN(c1nc(=O)n3c4c(c(-c5ccc(F)cc5)c(C(F)(F)F)cc14)SC[C@@H]3COC)C2 [Example 1384, (3S)-7-(9-acryloyl-3-oxa-7,9-diazabicyclo[3.3.1]nonan-7-yl)-10-(4-fluorophenyl)-3-(methoxymethyl)-9-(trifluoromethyl)-2,3-dihydro-5H-[1,4]thiazino[2,3,4-ij]quinazolin-5-one]
The “% CAF 10 uM @ 60 min” value of the first is lower: 66% for the first, 77.8% for the second.

Compared with `C=CC(=O)N1[C@H](C)CN(c2nc(=O)n3c4c(c(-c5cccc6cnn(C)c56)c(C(F)(F)F)cc24)SC[C@@H]3CN2C[C@@H]3C[C@H]2CO3)C[C@@H]1C` [Example 1385, (3S)-3-(((1S,4S)-2-oxa-5-azabicyclo[2.2.1]heptan-5-yl)methyl)-7-((3S,5R)-4-acryloyl-3,5-dimethylpiperazin-1-yl)-10-(1-methyl-1H-indazol-7-yl)-9-(trifluoromethyl)-2,3-dihydro-5H-[1,4]thiazino[2,3,4-ij]quinazolin-5-one], `C=CC(=O)N1[C@H](C)CN(c2nc(=O)n3c4c(c(-c5ccc(F)cc5)c(C(F)(F)F)cc24)SC[C@@H](CO)C3)C[C@@H]1C` [Example 1398, (R)-8-((3S,5R)-4-acryloyl-3,5-dimethylpiperazin-1-yl)-11-(4-fluorophenyl)-3-(hydroxymethyl)-10-(trifluoromethyl)-3,4-dihydro-2H,6H-[1,4]thiazepino[2,3,4-ij]quinazolin-6-one] is lower in “% CAF 10 uM @ 60 min” value: 92.5% for the first, 44.2% for the second.

Going from `C=CC(=O)N1[C@H](C)CN(c2nc(=O)n3c4c(c(-c5ccc(F)c(Cl)c5)c(C(F)(F)F)cc24)SC[C@@H](N2CCOCC2)C3)C[C@@H]1C` [Example 1386, (S)-8-((3S,5R)-4-acryloyl-3,5-dimethylpiperazin-1-yl)-11-(3-chloro-4-fluorophenyl)-3-morpholino-10-(trifluoromethyl)-3,4-dihydro-2H,6H-[1,4]thiazepino[2,3-4-ij]quinazolin-6-one] to `C=CC(=O)N1[C@H](C)CN(c2nc(=O)n3c4c(c(-c5ccc(F)cc5)c(C(F)(F)F)cc24)SC[C@H](CO)C3)C[C@@H]1C` [Example 1399, (S)-8-((3S,5R)-4-acryloyl-3,5-dimethylpiperazin-1-yl)-11-(4-fluorophenyl)-3-(hydroxymethyl)-10-(trifluoromethyl)-3,4-dihydro-2H,6H-[1,4]thiazepino[2,3,4-ij]quinazolin-6-one], the “% CAF 10 uM @ 60 min” value rises from 71.6% to 95.5%.

Compared with `C=CC(=O)N1C2CCC1CN(c1nc(=O)n3c4c(c(-c5cc(Cl)c(F)cc5F)c(C(F)(F)F)cc14)SC[C@@H]3COC)C2` [Example 1394, (3S,10R)-7-((1R,5S)-8-acryloyl-3,8-diazabicyclo[3.2.1]octan-3-yl)-10-(5-chloro-2,4-difluorophenyl)-3-(methoxymethyl)-9-(trifluoromethyl)-2,3-dihydro-5H-[1,4]thiazino[2,3,4-ij]quinazolin-5-one], `C=CC(=O)N1[C@@H]2CC[C@H]1CN(c1nc(=O)n3c4c(c(-c5cc(Cl)c(F)cc5F)c(C(F)(F)F)cc14)SC[C@@H]3CN1CCN(CC)CC1)C2` [Example 1403, (3S)-7-((1R,5S)-8-acryloyl-3,8-diazabicyclo[3.2.1]octan-3-yl)-10-(5-chloro-2,4-difluorophenyl)-3-((4-ethylpiperazin-1-yl)methyl)-9-(trifluoromethyl)-2,3-dihydro-5H-[1,4]thiazino[2,3,4-ij]quinazolin-5-one] is lower in “% CAF 10 uM @ 60 min” value: 93.5% for the first, 80.3% for the second.

Compared with `C=CC(=O)N1C2CCC1CN(c1nc(=O)n3c4c(c(-c5cc(Cl)c(F)cc5F)c(C(F)(F)F)cc14)SC[C@@H]3COC)C2` [Example 1395, (3S,10S)-7-((1R,5S)-8-acryloyl-3,8-diazabicyclo[3.2.1]octan-3-yl)-10-(5-chloro-2,4-difluorophenyl)-3-(methoxymethyl)-9-(trifluoromethyl)-2,3-dihydro-5H-[1,4]thiazino[2,3,4-ij]quinazolin-5-one], `C=CC(=O)N1C2CCC1CN(c1nc(=O)n3c4c(c(-c5cc(Cl)c(F)cc5F)c(C(F)(F)F)cc14)SCC1(COC1)C3)C2` [Example 1401, (R)-8′-((1R,5S)-8-acryloyl-3,8-diazabicyclo[3.2.1]octan-3-yl)-11′-(5-chloro-2,4-difluorophenyl)-10′-(trifluoromethyl)-2′H,4′H,6′H-spiro[oxetane-3,3′-[1,4]thiazepino[2,3,4-ij]quinazolin]-6′-one] is higher in “% CAF 10 uM @ 60 min” value: 17.3% for the first, 76.6% for the second.

First: C=CC(=O)N1[C@@H]2CC[C@H]1CN(c1nc(=O)n3c4c(c(-c5cc(Cl)c(F)cc5F)c(Cl)cc14)SC[C@@H]3CN1CCN(CC)CC1)C2 [Example 1400, (3S)-7-((1R,5S)-8-acryloyl-3,8-diazabicyclo[3.2.1]octan-3-yl)-9-chloro-10-(5-chloro-2,4-difluorophenyl)-3-((4-ethylpiperazin-1-yl)methyl)-2,3-dihydro-5H-[1,4]thiazino[2,3,4-ij]quinazolin-5-one]
Second: C=CC(=O)N1C2CCC1CN(c1nc(=O)n3c4c(c(-c5cc(Cl)c(F)cc5F)c(C(F)(F)F)cc14)SCC1(COC1)C3)C2 [Example 1402, (S)-8′-((1R,5S)-8-acryloyl-3,8-diazabicyclo[3.2.1]octan-3-yl)-11′-(5-chloro-2,4-difluorophenyl)-10′-(trifluoromethyl)-2′H,4′H,6′H-spiro[oxetane-3,3′-[1,4]thiazepino[2,3,4-ij]quinazolin-6′-one]
The “% CAF 10 uM @ 60 min” value of the first is higher: 43.7% for the first, 6.8% for the second.

With `C=CC(=O)N1[C@H](C)CN(c2nc(=O)n3c4c(c(-c5ccc(F)cc5)c(C(F)(F)F)cc24)SC[C@@H](COC)C3)C[C@@H]1C` [Example 1407, (R)-8-((3S,5R)-4-acryloyl-3,5-dimethylpiperazin-1-yl)-11-(4-fluorophenyl)-3-(methoxymethyl)-10-(trifluoromethyl)-3,4-dihydro-2H,6H-[1,4]thiazepino[2,3,4-ij]quinazolin-6-one] the “% CAF 10 uM @ 60 min” value was 92.7%.
